Test results published in ChEMBL document CHEMBL4725390, “Asymmetrically Substituted Quadruplex-Binding Naphthalene Diimide Showing Potent Activity in Pancreatic Cancer Models” (ACS Med Chem Lett, 2020).
Activity calls are given as the source filed them. No cut-off for these calls is given here.

Legend:
MIA PaCa-2 [1] = assay: Antiproliferative activity against human MIAPaCa2 cells assessed as growth inhibition after 96 hrs by SRB assay; type: functional
Mus musculus [2] = assay: Effect on hTERT expression in mouse xenografted with human MIAPaCa2 cells at 1 mg/kg, iv administered once per week for 28 days and measured on day 28 by Western blot analysis; type: functional, organism-based; details: time 28.0 day
MIA PaCa-2 [3] = assay: Downregulation of cell cycle associated gene expression in human MIAPaCa2 cells at 40 nM after 24 hrs by RNA sequencing analysis; type: functional, cell-based
Mus musculus [4] = assay: Effect on hTERT expression in mouse xenografted with human MIAPaCa2 cells at 1 mg/kg, iv administered twice per week for 28 days and measured on day 28 by Western blot analysis; type: functional, organism-based; details: time 28.0 day
MIA PaCa-2 [5] = assay: Downregulation of DNA replication associated gene expression in human MIAPaCa2 cells at 40 nM after 24 hrs by RNA sequencing analysis; type: functional, cell-based
MIA PaCa-2 [6] = assay: Downregulation of Wnt signaling pathway related gene expression in human MIAPaCa2 cells at 40 nM after 24 hrs by RNA sequencing analysis; type: functional, cell-based
Mus musculus [7] = assay: Up regulation of cleaved PARP protein expression in mouse xenografted with human MIAPaCa2 cells at 1 mg/kg, iv administered twice per week for 28 days measured on day 28 by Western blot analysis; type: functional, organism-based; details: time 28.0 day
[8] = Downregulation of AXIN1 mRNA expression in human MIAPaCa2 cells at 40 nM after 24 hrs by RNA sequencing analysis relative to control; type: functional, MIA PaCa-2
[9] = Downregulation of AXIN1 mRNA expression in human MIAPaCa2 cells at 40 nM after 6 hrs by RNA sequencing analysis relative to control; type: functional, MIA PaCa-2
MIA PaCa-2 [10] = assay: Downregulation of hippo signaling pathway related gene expression in human MIAPaCa2 cells at 40 nM after 6 hrs by RNA sequencing analysis; type: functional, cell-based
Quadruplex DNA [11] = assay: Binding affinity to G4 quadruplex DNA in human PANC1 cells assessed as BG4 foci formation at 800 nM after 6 hrs by immunofluorescence based confocal microscopic analysis; type: cell-based; details: PANC-1
Quadruplex DNA [12] = assay: Binding affinity to G4 quadruplex DNA in human PANC1 cells assessed as increase in number of BG4 foci at 100 nM after 24 hrs by immunofluorescence based confocal microscopic analysis; type: cell-based; details: PANC-1
CAPAN-1 = assay: Antiproliferative activity against human Capan1 cells assessed as growth inhibition after 96 hrs by SRB assay; type: functional
[13] = Downregulation of Bcl2 mRNA expression in human MIAPaCa2 cells at 40 nM after 24 hrs by RNA sequencing analysis relative to control; type: functional, MIA PaCa-2
[14] = Volume of distribution at steady state in mouse xenografted with human MIAPaCa2 cells at 0.96 mg/kg, iv administered as single dose; type: ADME, organism-based; details: in vivo, read-out: Vdss
MIA PaCa-2 [15] = assay: Antitumor activity against human MIAPaCa2 cells xenografted in mouse assessed as change in tumor volume at 1 mg/kg, iv administered twice per week for 28 days and measured at day 28 by Caliper method relative to control; type: functional; details: time 28 day
[16] = Antitumor activity in KPC-induced PDAC mouse model expressing active KRASG12D and mutant p53R172H assessed as median survival time at 1 mg/kg, iv administered once per week up to 3 weeks (reference value: 12 days); type: functional
[17] = Half life in rat at 1 mg/kg, iv administered as single dose; type: ADME, organism-based; details: in vivo
MIA PaCa-2 [18] = assay: Downregulation of Wnt signaling pathway related gene expression in human MIAPaCa2 cells at 40 nM after 6 hrs by RNA sequencing analysis; type: functional, cell-based
BXPC-3 = assay: Antiproliferative activity against human BxPC3 cells assessed as growth inhibition after 96 hrs by SRB assay; type: functional
[19] = Toxicity in mouse xenografted with human MIAPaCa2 cells assessed as effect on cardiac clinical signs at 1 mg/kg, iv administered twice per week for 28 days; type: organism-based; details: in vivo, 672 h, time 28 day
MIA PaCa-2 [20] = assay: Antitumor activity against human MIAPaCa2 cells xenografted in mouse assessed as mean tumor volume at 1 mg/kg, iv administered once per week for 28 days and measured at day 28 by Caliper method (reference value: 0.45 +/- 0.18 cm3); type: functional; details: time 28 day
[21] = Downregulation of hTERT mRNA expression in human MIAPaCa2 cells at 40 nM after 24 hrs by RNA sequencing analysis relative to control; type: functional, MIA PaCa-2
MIA PaCa-2 [22] = assay: Antitumor activity against human MIAPaCa2 cells xenografted in mouse assessed as mean tumor volume at 1 mg/kg, iv administered twice per week for 28 days and measured at day 53 by Caliper method (reference value: 1.60 +/- 0.44 cm3); type: functional; details: time 28 day
[23] = AUC in mouse xenografted with human MIAPaCa2 cells at 0.96 mg/kg, iv administered as single dose; type: ADME, organism-based; set-up: dose 0.96 mg/kg; details: in vivo
[24] = Downregulation of WNT5B mRNA expression in human MIAPaCa2 cells at 40 nM after 24 hrs by RNA sequencing analysis relative to control; type: functional, MIA PaCa-2
MIA PaCa-2 [25] = assay: Antitumor activity against human MIAPaCa2 cells xenografted in mouse assessed as change in tumor volume at 1 mg/kg, iv administered once per week for 28 days and measured at day 53 by Caliper method relative to control; type: functional; details: time 28 day
[26] = Cmax in mouse xenografted with human MIAPaCa2 cells at 0.96 mg/kg, iv administered as single dose; type: ADME, organism-based; set-up: route intravenous, dose 0.96 mg/kg; details: in vivo
[27] = Downregulation of APC2 mRNA expression in human MIAPaCa2 cells at 40 nM after 24 hrs by RNA sequencing analysis relative to control; type: functional, MIA PaCa-2
[28] = Downregulation of hTERT mRNA expression in human MIAPaCa2 cells at 40 nM after 6 hrs by RNA sequencing analysis relative to control; type: functional, MIA PaCa-2

O=C1c2cc(-c3ccc(CN4CCCC4)cc3)c3c4c(cc(NCCN5CCCC5)c(c24)C(=O)N1CCCN1CCOCC1)C(=O)N(CCCN1CCOCC1)C3=O [QN-302]
GI50 (MIA PaCa-2 [1]): 1.3 nM | Activity (Mus musculus [2]): inactive | inhibition (MIA PaCa-2 [3]): Active | Activity (Mus musculus [4]): inactive | inhibition (MIA PaCa-2 [5]): Active | inhibition (MIA PaCa-2 [6]): Active | Activity (Mus musculus [7]): Active | log2FC [8]: 0.39 | log2FC [9]: 1.59 | inhibition (MIA PaCa-2 [10]): Active | Activity (Quadruplex DNA [11]): inactive | Activity (Quadruplex DNA [12]): Active | GI50 (CAPAN-1): 5.9 nM | log2FC [13]: 1.75 | Vd [14]: 1.2 L/kg | Activity (MIA PaCa-2 [15]): -86.6% | MST [16]: 24 days | half-life [17]: 36 h | inhibition (MIA PaCa-2 [18]): Active | GI50 (BXPC-3): 2.6 nM | Activity [19]: Non-Toxic | Activity (MIA PaCa-2 [20]): 0.08 cm3 | log2FC [21]: 1.02 | Activity (MIA PaCa-2 [22]): 0.15 cm3 | AUC [23]: 5860 ng·h/mL | log2FC [24]: 0.57 | Activity (MIA PaCa-2 [25]): -89.83% | Cmax [26]: 4180 ng/mL | log2FC [27]: 1.06 | log2FC [28]: 2.29
